The supplement of paper PMC10307832

Tests used:
Assay in all cases: relative viability (nuclei count vs DMSO), 5 days (fraction); higher = more cells survive
[1] = compound: NC(=O)c1ccc(N(C(N)=O)c2c(F)cccc2F)nc1-c1ccc(F)cc1F [VX-702] + C[C@@H](Oc1cc(-c2cnn(C3CCNCC3)c2)cnc1N)c1c(Cl)ccc(F)c1Cl [Crizotinib] (partner 1 µM)
Outline: (§1)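 Lung cancer cell lines, seeded in 1536-well plates, were treated the following day by pin tool with a single drug or with five library-drug doses (not always all listed) in √10 steps on top of a fixed anchor-drug dose. Cells were fixed and nuclei stained in one step after 5 days, and nuclei were counted. Relative viability is the nuclei count for treated wells divided by that for vehicle wells, reported as medians of duplicate plates.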

[2] = compound: NC(=O)c1ccc(N(C(N)=O)c2c(F)cccc2F)nc1-c1ccc(F)cc1F [VX-702] + C[C@]1(O)C[C@@H](c2nc(-c3ccc4ccc(-c5ccccc5)nc4c3)c3c(N)nccn32)C1 [Linsitinib] (partner 1 µM)
Outline: as §1

[3] = compound: CC(C)(C)c1nc(-c2cccc(NS(=O)(=O)c3c(F)cccc3F)c2F)c(-c2ccnc(N)n2)s1 [Dabrafenib] + CC(=O)c1c(C)c2cnc(Nc3ccc(N4CCNCC4)cn3)nc2n(C2CCCC2)c1=O [Palbociclib] (partner 0.5 µM)
Outline: as §1

[4] = compound: CC(C)(C)c1nc(-c2cccc(NS(=O)(=O)c3c(F)cccc3F)c2F)c(-c2ccnc(N)n2)s1 [Dabrafenib] + CC1(C)CCC(c2ccc(Cl)cc2)=C(CN2CCN(c3ccc(C(=O)NS(=O)(=O)c4ccc(N[C@H](CCN5CCOCC5)CSc5ccccc5)c(S(=O)(=O)C(F)(F)F)c4)cc3)CC2)C1 [Navitoclax] (partner 0.5 µM)
Outline: as §1

| Cell Line | relative viability ([1]; first compound 0.02 µM) | relative viability ([1]; first compound 0.2 µM) | relative viability ([1]; first compound 0.6325 µM) | relative viability ([1]; first compound 2 µM) | relative viability ([2]; first compound 0.02 µM) | relative viability ([2]; first compound 0.2 µM) | relative viability ([2]; first compound 0.6325 µM) | relative viability ([2]; first compound 2 µM) | relative viability ([3]; first compound 0.003 µM) | relative viability ([3]; first compound 0.009487 µM) | relative viability ([3]; first compound 0.03 µM) | relative viability ([3]; first compound 0.09487 µM) | relative viability ([3]; first compound 0.3 µM) | relative viability ([4]; first compound 0.003 µM) | relative viability ([4]; first compound 0.009487 µM) | relative viability ([4]; first compound 0.03 µM) | relative viability ([4]; first compound 0.09487 µM) | relative viability ([4]; first compound 0.3 µM) |
| --- | --- | --- | --- | --- | --- | --- | --- | --- | --- | --- | --- | --- | --- | --- | --- | --- | --- | --- |
| UMC-11 | 0.578 | 0.596 | 0.512 | 0.692 | 0.949 | 0.985 | 0.851 | 1.08 | 0.33 | 0.31 | 0.288 | 0.327 | 0.349 | 0.295 | 0.369 | 0.315 | 0.356 | 0.332 |
| NCI-H1437 | 0.916 | 0.871 | 0.873 | 1.18 | 1.1 | 1.02 | 1.09 | 1.3 | 0.307 | 0.35 | 0.363 | 0.384 | 0.413 | 1.14 | 1.02 | 1.14 | 1.07 | 1.1 |
| EKVX | 0.774 | 0.969 | 0.905 | 1.2 | 0.946 | 1.01 | 1.01 | 0.988 | – | 0.41 | 0.387 | 0.383 | 0.445 | 0.778 | 1.01 | 0.961 | 0.894 | 1.11 |
| COR-L 105 | 0.653 | 0.79 | 0.956 | 1.21 | 0.965 | 0.916 | 0.956 | 1.4 | 0.414 | 0.396 | 0.398 | 0.417 | 0.367 | 0.73 | 0.856 | 0.649 | 0.875 | 0.744 |
| NCI-H650 | 0.669 | – | 0.761 | 1.04 | 0.927 | – | 1.07 | 1.12 | – | 0.375 | 0.308 | 0.305 | 0.238 | – | – | – | – | – |
| NCI-H1648 | – | – | – | – | – | – | – | – | 0.317 | 0.215 | – | 0.251 | 0.329 | – | – | – | – | – |
| NCI-H2009 | 1.11 | 1.13 | 1.18 | 1.25 | 1.33 | 1.23 | 1.21 | 1.34 | 0.153 | 0.22 | 0.179 | 0.149 | 0.128 | 1.11 | 1.02 | 1.06 | 0.909 | 0.841 |
| LXF-289 | 0.924 | 0.802 | 0.874 | 0.864 | 0.941 | 0.961 | 0.931 | 0.96 | 0.59 | 0.594 | 0.673 | 0.62 | 0.616 | 0.95 | 0.931 | 1.04 | 0.934 | 0.998 |
| NCI-H647 | 1.14 | 1 | 1.12 | 1.05 | 1.21 | 0.941 | 1.18 | 1.4 | 0.328 | 0.377 | 0.305 | 0.395 | 0.349 | – | 1.07 | – | 1.08 | 1.11 |
| NCI-H1666 | 1.1 | 0.923 | 1.03 | 1.12 | 0.878 | 0.86 | 0.747 | 0.855 | 0.643 | 0.671 | 0.675 | 0.565 | 0.686 | 0.929 | – | 1.1 | 0.863 | 0.998 |
| NCI-H1734 | 0.593 | 0.55 | 0.573 | 0.71 | 0.977 | 0.769 | 0.794 | 0.763 | – | 0.352 | 0.287 | 0.344 | 0.347 | – | 0.835 | 0.703 | 0.766 | 0.85 |
| BEN | 0.732 | 0.781 | 0.937 | 0.956 | 0.828 | 0.798 | 0.967 | 0.852 | – | 0.477 | – | 0.426 | 0.448 | – | 0.0803 | – | 0.0599 | 0.0801 |
| PC-3 [JPC-3] | 0.974 | 0.966 | 1.03 | 1.04 | 0.966 | 1.01 | 1.03 | 1.05 | – | 0.571 | 0.6 | 0.534 | 0.55 | 0.85 | 0.829 | 0.822 | 0.781 | 0.788 |
| NCI-H2228 | 0.628 | 0.536 | 0.394 | 0.45 | 0.724 | 0.671 | 0.685 | 0.761 | 0.502 | 0.801 | 0.753 | 0.668 | 0.7 | 0.543 | 0.953 | 0.693 | 0.854 | 0.757 |
| HOP-62 | 0.946 | 0.651 | 0.549 | 0.915 | 0.918 | 0.851 | 1.04 | 1.05 | 0.466 | 0.423 | 0.433 | 0.471 | 0.498 | 0.89 | 1.01 | 1.02 | 0.718 | 1.02 |
| H3255 | 0.774 | 1.09 | 0.855 | 0.86 | 0.941 | 0.856 | 0.866 | 0.929 | 0.288 | 0.313 | 0.343 | 0.313 | 0.333 | 0.375 | 0.669 | 0.548 | 0.441 | 0.566 |
| 201T | 1.01 | 1.02 | 1.08 | 1.04 | 0.958 | 1.03 | 0.986 | 0.987 | 0.368 | 0.366 | 0.368 | 0.318 | 0.376 | 1.19 | 1.18 | 1.15 | 1.15 | 1.26 |
| HCC-44 | 0.802 | 0.739 | 0.817 | 0.971 | 0.618 | 0.671 | 0.617 | 0.65 | 1.01 | 0.956 | 0.943 | 0.842 | 0.983 | 0.939 | 1.04 | 0.939 | 0.843 | 1.04 |
| ABC-1 | 1.34 | – | 1.08 | 1.42 | 0.661 | – | 0.925 | 1.16 | – | 1.01 | 0.704 | 0.607 | 1.03 | – | – | – | – | – |
